Measurements: article PMC12491243, “Rational design of indoleamine 2,3-dioxygenase 1 (IDO1) inhibitors featuring 1,2,3-triazole derivatives with enhanced anti-inflammatory and analgesic efficacy” (Frontiers in Pharmacology, 2025)

Experiments:
Assay type in all cases: in vivo
[1] = test system: TNF-α; test: ELISA of TNF-α in inflamed paw, spinal cord and serum of CFA mice; details: ipsilateral L4–L6 spinal cord and serum, 72 h after CFA
Text: To determine whether the analgesic effects of Compound 14e are associated with reduced local and systemic inflammation, we measured the levels of inflammatory factors in the inflamed paw tissue, ipsilateral L4–L6 spinal cord, and peripheral blood. The results indicated a significant increase in the protein levels of TNF-α and IL-1β in the inflamed paw, spinal cord, and serum of mice in the CFA group compared to the vehicle group.
FIGURE 6 Compound 14e reduces TNF-α and IL-1β in the inflamed hindpaw skin, spinal cord and peripheral blood 72 h after CFA-induced inflammation. (A,D) Expression levels of TNF-α and IL-1β in the inflamed skin tissue. (B,E) Expression levels of TNF-α and IL-1β in ipsilateral L4–6 spinal cord. […]
Under anesthesia with 1% pentobarbital sodium, serum was obtained from the mice orbits, after coagulation at room temperature for 2 h, the sample was then centrifuged at 1,000 × g for 20 min at 4 °C, with the supernatant collected. […] The protein concentrations were determined using a bicinchoninic acid (BCA) kit (Pierce Biotechnology Inc.). The following inflammatory factors were measured using Mouse TNF-α ELISA kit (EM0183) and IL-1β ELISA kit (EM0109) obtained from Wuhan Fine Biotechnology Company, according to the product protocols. The O.D. absorbance at 450 nm was quantified in a ultramicroplate spectrophotometer (BioTek Epoch).

[2] = test system: Iba1; test: Western blot of Iba1 in spinal cord of CFA mice; details: L4–L6 spinal cord, 30 mg/kg i.p. once a day for 3 days, versus vehicle group
Experimental: Given the critical role of microglial activation in inflammation-mediated responses, we investigated whether Compound 14e could modulate microglial activity in the spinal dorsal horn of mice following Complete Freund’s Adjuvant (CFA) injection. First, we assessed the expression of the microglial marker Iba1 in the L4–L6 segments of the spinal cord.
FIGURE 4 Compound 14e prevented the upregulation of Iba1 in CFA mice.
The mice were anesthetized with isoflurane, and 40 μL of CFA (Sigma-Aldrich) was intraplantarly injected into the mid-plantar surface of their left hind paws. As for the control group, an equivalent volume of normal saline was injected ([Jiang et al., 2018]).
(§1) The compound 14e were diluted with 10% DMSO, and were intraperitoneally injected with 30 mg/kg into the mice once a day for 3 days after CFA. The dosage of compound 14e was determined based on our preliminary experiments.
Animals were deeply anesthetized with 1% pentobarbital sodium (0.1 g/kg, i. p.) and the ipsilateral spinal cord in the lumbar enlargement site was rapidly separated and homogenized in ice-cold lysis buffer containing 50 mM Tris-HCl (pH 7.4), 150 mM NaCl, 1% NP-40, 0.1% SDS, 1 mM phenylmethylsulfonyl fluoride and protease phosphatase inhibitor (Solarbio Company, China). […] The protein concentrations were measured using a bicinchoninic acid (BCA) kit (Pierce Biotechnology Inc.). […]

[3] = test system: CFA-induced inflammatory pain model; test: CFA-induced thermal hyperalgesia, paw withdrawal latency; details: CFA mice, 30 mg/kg i.p., ipsilateral side, 12 to 72 h post-CFA
Experimental: To evaluate the analgesic effects of Compound 14e in vivo, we established an inflammatory pain model using intraplantar injection of CFA. Compound 14e (30 mg/kg) was administered intraperitoneally at 6 h, with subsequent doses at 48 and 72 h after CFA injection. Behavioral assessments, including von Frey testing for mechanical allodynia and heat stimuli for thermal hyperalgesia, were conducted on the injected hind paw at baseline (BL), as well as at 6, 12, 18, 24, 48 and 72 h post-CFA injection. Additionally, flinching and guarding behaviors, indicators of spontaneous pain, were evaluated 72 h after CFA injection.
FIGURE 5 Compound 14e attenuates mechanical allodynia, thermal hyperalgesia and spontaneous pain of inflammatory pain in mice. (A,B) Evaluation of CFA-induced mechanical allodynia as assessed by withdrawal frequency to 0.07 g (A) and 0.4 g (B) von Frey filaments in mice repetitive treated with 10% DMSO or compound 14e. […]
as §1
For the thermal nociceptive response, paw withdrawal latencies (PWLs) to thermal stimulus were measured by a heat flux radiometer (Ugo Basile S.R.L., Italy) ([Liu et al., 2023]). […]

In the case of `O=C1COc2ccc(NC(=O)c3cccc(-c4cn(Cc5c(F)cccc5Cl)nn4)c3)cc2N1` [Compound 14e], the “CFA-induced levels of TNF-α” value [1] was “significantly decreased”, the “Iba1 protein level (Western blot)” value [2] was “significantly reduced” and the “thermal hyperalgesia, paw withdrawal latency (PWL)” value [3] was “significantly alleviated”.
